Target: T1, human clotting factor VIIa (Homo sapiens, UniProt P08709)
T1 construct: a human clotting factor VIIa (hereinafter, “Factor VIIa”) purified sample; purchased Enzyme Research Laboratories HFVIIa
Experiment: Inhibitory activity against clotting factor VIIa (chromogenic substrate Spectrozyme FVIIa, TF/Factor VIIa enzyme solution)
Assay type: biochemical
Settings: human Factor VIIa 5 nmol/L with human TF 10 nmol/L, room temperature 40 minutes, 405 nm
Summary of the method: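 Human Factor VIIa (5 nmol/L) with human TF (10 nmol/L) in Tris-BSA buffer pH 7.4 containing 15 mmol/L CaCl2 and cephalin, with Spectrozyme FVIIa substrate. Reaction 40 min at room temperature; 4-nitroanilide read at 405 nm. IC50 by non-linear regression over 100 μmol/L–0.1 nmol/L.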

T1 sequence (P08709 213-466 limits assumed): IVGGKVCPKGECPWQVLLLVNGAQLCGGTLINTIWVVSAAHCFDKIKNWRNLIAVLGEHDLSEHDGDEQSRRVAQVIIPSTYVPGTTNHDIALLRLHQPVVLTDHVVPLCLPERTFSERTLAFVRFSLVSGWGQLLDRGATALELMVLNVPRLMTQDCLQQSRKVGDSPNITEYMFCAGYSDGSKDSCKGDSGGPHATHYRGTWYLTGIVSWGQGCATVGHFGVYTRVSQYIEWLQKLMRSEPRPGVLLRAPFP
T1 sequence (P08709 61-212 limits assumed): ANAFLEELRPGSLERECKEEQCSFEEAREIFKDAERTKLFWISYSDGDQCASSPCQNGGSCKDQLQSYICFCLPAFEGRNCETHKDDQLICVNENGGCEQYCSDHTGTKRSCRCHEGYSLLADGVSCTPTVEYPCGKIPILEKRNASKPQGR
T1 sequence (P13726 33-295 partner): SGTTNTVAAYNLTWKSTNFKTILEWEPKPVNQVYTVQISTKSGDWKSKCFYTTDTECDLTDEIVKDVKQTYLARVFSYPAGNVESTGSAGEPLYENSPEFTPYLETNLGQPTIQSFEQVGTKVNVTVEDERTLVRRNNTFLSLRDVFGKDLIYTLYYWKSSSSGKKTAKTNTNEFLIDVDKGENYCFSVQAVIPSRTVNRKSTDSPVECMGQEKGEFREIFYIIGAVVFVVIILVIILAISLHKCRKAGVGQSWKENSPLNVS

Row | Structure (SMILES) | IC50 [nM]
1 | COc1cc(C(Nc2ccc(C(=N)N)cc2)c2nn(-c3ncccn3)c(=O)[nH]2)c(F)c2c1OCC2 (racemic) [Example 161, (R) and (S)-4-{[(4-fluoro-7-methoxy-2,3-dihydrobenzofuran-5-yl)-(5-oxo-1-pyrimidin-2-yl-4,5-dihydro-1H-[1,2,4]triazol-3-yl)methyl]-amino}benzamidine acetate] | 9
2 | COc1cc(F)c(C(Nc2ccc(C(=N)N)cc2)c2nn(-c3ncsc3C(=O)O)c(=O)[nH]2)cc1OC (racemic) [Example 162, (R) and (S)-4-{3-[(4-carbamimidoylphenylamino)-(2-fluoro-4,5-dimethoxyphenyl)methyl]-5-oxo-4,5-dihydro[1,2,4]triazol-1-yl}thiazole-5-carboxylic acid] | 16.5
3 | COc1cc(OCCCO)c(F)c(C(Nc2ccc(C(=N)N)cc2)c2nn(-c3ncsc3C(=O)O)c(=O)[nH]2)c1 (racemic) [Example 163, (R) and (S)-4-(3-{(4-carbamimidoylphenylamino)-[2-fluoro-3-(3-hydroxypropoxy)-5-methoxyphenyl]methyl}-5-oxo-4,5-dihydro-[1,2,4]triazol-1-yl)thiazole-5-carboxylic acid] | 10.5
4 | COc1cc(C(Nc2ccc(C(=N)N)cc2)c2nn(-c3ncsc3C(N)=O)c(=O)[nH]2)c(F)c2c1OCOC2 (racemic) [Example 164, (R) and (S)-4-{3-[(4-carbamimidoylphenylamino)-(5-fluoro-8-methoxy-4H-benzo[1,3]dioxin-6-yl)methyl]-5-oxo-4,5-dihydro-[1,2,4]triazol-1-yl}thiazole-5-carboxylic acid amide] | 24.5
5 | COc1cc(C(Nc2ccc(C(=N)N)cc2)c2nn(-c3ncsc3C(=O)O)c(=O)[nH]2)c(F)c2c1OCOC2 (racemic) [Example 165, (R) and (S)-4-{3-[(4-carbamimidoylphenylamino)-(5-fluoro-8-methoxy-4H-benzo[1,3]dioxin-6-yl)methyl]-5-oxo-4,5-dihydro-[1,2,4]triazol-1-yl}thiazole-5-carboxylic acid] | 25.8
6 | COc1cc(C(Nc2ccc(C(=N)N)cc2)c2nn(-c3ncsc3C(=O)O)c(=O)[nH]2)cc2c1OCOC2 (racemic) [Example 166, (R) and (S)-4-{3-[(4-carbamimidoylphenylamino)-(8-methoxy-4H-benzo[1,3]dioxin-6-yl)methyl]-5-oxo-4,5-dihydro-[1,2,4]triazol-1-yl}thiazole-5-carboxylic acid] | 18.7
7 | COc1cc(OCCO)c(F)c(C(Nc2ccc(C(=N)N)cc2)c2nn(-c3ncsc3C(=O)O)c(=O)[nH]2)c1 (racemic) [Example 167, (R) and (S)-4-(3-{(4-carbamimidoylphenylamino)-[2-fluoro-3-(2-hydroxyethoxy)-5-methoxyphenyl]methyl}-5-oxo-4,5-dihydro[1,2,4]triazol-1-yl)thiazole-5-carboxylic acid] | 11.1
8 | COc1cc(C(Nc2ccc(C(=N)N)cc2)c2nn(-c3ccsc3C(=O)O)c(=O)[nH]2)c(F)c2c1OCCO2 (racemic) [Example 168, (R) and (S)-3-{3-[(4-carbamimidoylphenylamino)-(5-fluoro-8-methoxy-2,3-dihydrobenzo[1,4]dioxin-6-yl)methyl]-5-oxo-4,5-dihydro-[1,2,4]triazol-1-yl}thiophene-2-carboxylic acid] | 2.8
9 | COc1cc(C(Nc2ccc(C(=N)N)cc2)c2nn(-c3ccsc3C(=O)O)c(=O)[nH]2)cnc1OC (racemic) [Example 169, 3-{3-[(R) and (S)-(4-carbamimidoylphenylamino)-(5,6-dimethoxypyridin-3-yl)methyl]-5-oxo-4,5-dihydro-[1,2,4]triazol-1-yl}thiophene-2-carboxylic acid acetate] | 2.8
10 | COc1cnc(C(Nc2ccc(C(=N)N)cc2)c2nn(-c3ccsc3C(=O)O)c(=O)[nH]2)cc1OC (racemic) [Example 170, 3-{3-[(R) and (S)-(4-carbamimidoylphenylamino)-(4,5-dimethoxypyridin-2-yl)methyl]-5-oxo-4,5-dihydro-[1,2,4]triazol-1-yl}thiophene-2-carboxylic acid] | 8
11 | COc1cc(F)c(C(Nc2ccc(C(=N)N)cc2)c2nn(-c3ccsc3C(=O)O)c(=O)[nH]2)cc1OC (racemic) [Example 171, (R) and (S)-3-{3-[(4-carbamimidoylphenylamino)-(2-fluoro-4,5-dimethoxyphenyl)methyl]-5-oxo-4,5-dihydro[1,2,4]triazol-1-yl}thiophene-2-carboxylic acid] | 3.3
12 | COc1cc(C(Nc2ccc(C(=N)N)c(F)c2)c2nn(-c3ccccc3C(=O)O)c(=O)[nH]2)cc(C)n1 (racemic) [Example 173, 2-{3-[(R) and (S)-(4-carbamimidoyl-3-fluorophenylamino)-(2-methoxy-6-methylpyridin-4-yl)methyl]-5-oxo-4,5-dihydro-[1,2,4]triazol-1-yl}benzoic acid] | 14.1
13 | COc1cc(OCCF)c(F)c(C(Nc2ccc(C(=N)N)cc2)c2nn(-c3cccc(N)n3)c(=O)[nH]2)c1 (racemic) [Example 174, (R) and (S)-4-({[1-(6-aminopyridin-2-yl)-5-oxo-4,5-dihydro-1H-[1,2,4]triazol-3-yl]-[2-fluoro-3-(2-fluoroethoxy)-5-methoxyphenyl]methyl}amino)benzamidine acetate] | 1.8
14 | COc1cc(C(Nc2ccc(C(=N)N)cc2)c2nn(-c3ncccc3C(=O)O)c(=O)[nH]2)c(F)c2c1OCCCO2 (racemic) [Example 176, (R) and (S)-2-{3-[(4-carbamimidoylphenylamino)-(6-fluoro-9-methoxy-3,4-dihydro-2H-benzo[b][1,4]dioxepin-7-yl)methyl]-5-oxo-4,5-dihydro-[1,2,4]triazol-1-yl}nicotinic acid] | 6.1
15 | COc1cc(C(Nc2ccc(C(=N)N)cc2)c2nn(-c3ccccc3C(=O)O)c(=O)[nH]2)c(F)cc1OCCO (racemic) [Example 178, (R) and (S)-2-(3-{(4-carbamimidoylphenylamino)-[2-fluoro-4-(2-hydroxyethoxy)-5-methoxyphenyl]methyl}-5-oxo-4,5-dihydro-[1,2,4]triazol-1-yl)benzoic acid] | 14.3
16 | CCc1cc(C(Nc2ccc(C(=N)N)cc2)c2nn(-c3ncsc3C(=O)O)c(=O)[nH]2)cc2c1OCOC2 (racemic) [Example 179, (R) and (S)-4-{3-[(4-carbamimidoylphenylamino)-(8-ethyl-4H-benzo[1,3]dioxin-6-yl)methyl]-5-oxo-4,5-dihydro-[1,2,4]triazol-1-yl}thiazole-5-carboxylic acid] | 9.9
17 | COc1ccc(C(Nc2ccc(C(=N)N)c(O)c2)c2nn(-c3ccccc3C(=O)O)c(=O)[nH]2)cc1OC (racemic) [Example 183, 2-{3-[(R) and (S)-(4-carbamimidoyl-3-hydroxyphenylamino)-(3,4-dimethoxyphenyl)methyl]-5-oxo-4,5-dihydro-[1,2,4]triazol-1-yl}benzoic acid] | 10.6
18 | COc1cc(F)c(C(Nc2ccc(C(=N)N)cc2)c2nn(-c3ncccc3F)c(=O)[nH]2)cc1OC (racemic) [Example 184, (R) and (S)-4-({(2-fluoro-4,5-dimethoxyphenyl)-[1-(3-fluoropyridin-2-yl)-5-oxo-4,5-dihydro-1H-[1,2,4]triazol-3-yl]methyl}amino)benzamidine acetate] | 6.7
19 | COc1cc(C(Nc2ccc(C(=N)N)cc2)c2nn(-c3ncccc3N)c(=O)[nH]2)cnc1OC (racemic) [Example 186, 4-{[(R) and (S)-[1-(3-Aminopyridin-2-yl)-5-oxo-4,5-dihydro-1H-[1,2,4]triazol-3-yl]-(5,6-dimethoxypyridin-3-yl)methyl]amino}benzamidine acetate] | 4.6
20 | COc1cc(C(Nc2ccc(C(=N)N)cc2)c2nn(-c3ncsc3C(=O)O)c(=O)[nH]2)c(F)c2c1OCCC2 (racemic) [Example 190, 4-{3-[(R) and (S)-(4-Carbamimidoylphenylamino)-(5-fluoro-8-methoxychroman-6-yl)methyl]-5-oxo-4,5-dihydro-[1,2,4]triazol-1-yl}thiazole-5-carboxylic acid] | 7.9
21 | COc1ccc(C(Nc2ccc(C(=N)N)cc2)c2nn(-c3ncsc3C(=O)O)c(=O)[nH]2)cc1OC (racemic) [Example 193, (R) and (S)-4-{3-[(4-Carbamimidoylphenylamino)-(3,4-dimethoxyphenyl)methyl]-5-oxo-4,5-dihydro-[1,2,4]triazol-1-yl}-thiazole-5-carboxylic acid] | 15.7
22 | COc1cc(F)c(C(Nc2ccc(C(=N)N)cc2)c2nn(-c3[nH]ncc3C(=O)O)c(=O)[nH]2)cc1OC (racemic) [Example 194, (R) and (S)-5-{3-[(4-Carbamimidoylphenylamino)-(2-fluoro-4,5-dimethoxyphenyl)methyl]-5-oxo-4,5-dihydro-[1,2,4]triazol-1-yl}-1H-pyrazole-4-carboxylic acid acetate] | 74.5
23 | COCCOc1ccc(C(Nc2ccc(C(=N)N)cc2)c2nn(-c3ccsc3C(=O)O)c(=O)[nH]2)cc1OC (racemic) [Example 195, 3-(3-{(R) and (S)-(4-Carbamimidoylphenylamino)-[3-methoxy-4-(2-methoxyethoxy)phenyl]methyl}-5-oxo-4,5-dihydro-[1,2,4]triazol-1-yl)thiophene-2-carboxylic acid] | 6.2
24 | COc1cc(OCCO)c(F)c(C(Nc2ccc(C(=N)N)cc2)c2nn(-c3ncc[nH]c3=O)c(=O)[nH]2)c1 (racemic) [Example 199, (R) and (S)-4-({[2-Fluoro-3-(2-hydroxyethoxy)-5-methoxyphenyl]-[5-oxo-1-(3-oxo-3,4-dihydropyrazin-2-yl)-4,5-dihydro-1H-[1,2,4]triazol-3-yl]methyl}amino)benzamidine acetate] | 24.1
